PMC11899342, “Novel Triazeneindole Antibiotics: Synthesis and Hit-to-Lead Optimization” (International Journal of Molecular Sciences, 2025)

Columns and labels:
hERG K+-ion channel = target: T1, hERG K+-ion channel (Homo sapiens, UniProt Q12809); assay: Predictor hERG fluorescence polarization assay; type: binding; conditions: tracer displacement, up to 50 µM
T1 construct: purchased Invitrogen
Experimental: Determination of the binding of the BX-SI043 compound to the hERG K^+-ion channel was carried out using the Predictor hERG Fluorescence Polarization Assay Kit (Invitrogen, USA) at concentrations of 0.016, 0.08, 0.4, 2, 10, and 50 µM, according to the manufacturer’s instructions. This method is based on the measurement of the changing fluorescence polarization caused by the displacement of the high-affinity fluorescent tracer by the tested compound. A selective inhibitor of the hERG channels E-4031 was used as a control compound. Briefly, a 2X solution of membranes, containing hERG channels, was prepared and placed in 384-well plate. The tested substance, the control substance, the buffer, and the tracer were placed in the corresponding wells and incubated in the dark at room temperature for 2 h. Fluorescence polarization measurement was conducted on an Infinite M1000 PRO plate reader with the following parameters: 10 flashes per well; an excitation center wavelength of 530 nm, with a bandwidth of 5 nm; an emission center wavelength of 585 nm, with a bandwidth of […]. The calculation of the IC50 half-maximal inhibition concentration values was performed in GraphPad Prism 6.0 (GraphPad Software Inc.), based on the equations of the experimental curves.

[1] = Stability in human plasma; type: in vitro ADME; conditions: 37 °C, 1 μM
Experimental: (§1) For the experiment, human and rat plasma (SD) was thawed at room temperature and centrifuged for 5 min at 1500× g. Eucatropine (Sigma-Aldrich, USA), which is unstable in human and rat plasma, was used as a control compound.
(§2) For stability evaluation, 3 μL of 100X solutions of the tested or control compound (0.1 mM) was added to 297 μL of the corresponding plasma (prewarmed to 37 °C) to a final concentration of 1 μM. The plasma samples were incubated with the test and control compounds in the 0.65 mL microtubes at 37 °C and under 300 rpm rotation. After 15, 30, 60, and 240 min, 30 μL aliquots were taken into 1.1 mL microtubes with 180 μL of chilled acetonitrile with an internal standard of 200 ng/mL tolbutamide (Fluka). The tubes were stirred and kept at 4 °C for 15 min, then centrifuged at 1500× g for 10 min. A total of 200 μL of the supernatants was transferred into microtubes and stored at −70 °C until UPLC–MS/MS analysis.

[2] = Stability in rat liver microsomes; type: in vitro ADME; conditions: NADPH
Experimental: (§3) The liver metabolism of the substance was studied in the microsomal fractions of human and rat livers (XenoTech HMMCPL, RTMCPL, Kansas City, KS, USA) in the presence of the cofactor of the oxidative enzymes NADPH (AppliChem, Darmstadt, Germany).
(§4) The plate was incubated in a thermal shaker for 10 min at 400 rpm and 37 °C; then, 2.4 µL of 100× stocks of the tested substance was added into each well. A total of 30 µL of 8× cofactor solution was added to each experimental well (two replicates), 30 µL of deionized water was added to one control well, and all wells were mixed three times using a multichannel pipette with a volume of 100 µL. After mixing, the plate was placed in a thermal shaker at 400 rpm and 37 °C. The reactions were terminated at the following time points—0, 5, 10, 15, 20, and 30 min—by transferring 30 µL of the reaction mixture from the corresponding well to 1.1 mL microtubes and adding 180 µL of acetonitrile with internal standard 200 ng/mL tolbutamide (Fluka, Switzerland). To evaluate the stability of the substance in the microsomes without the cofactor, two aliquots were taken from the control well, and the reactions were terminated at 0 and 30 min time points. […] Then, the samples were centrifuged for 10 min at 1500× g, and 150 μL of the supernatant was taken for UPLC–MS/MS analysis.

[3] = Caco-2 cell monolayer permeability; type: in vitro ADME, human; conditions: human, Caco-2; read-out: Asymmetry index
Experimental: (§5) The MultiScreen Caco-2 (ATCC cat. # HTB-37) test system (Millipore, St. Charles, MO, USA) was used to study the transport through a cell monolayer, according to the manufacturer’s instructions. Briefly, a study of transport from the apical membrane to the basolateral (A-B) area and in the opposite direction (B-A) was carried out on a 21-day culture of Caco-2 at a 1 µM concentration of the tested compound for 2 h. Monolayer integrity was verified by measuring electrical resistance (TEER) using a Millicell-ERS instrument. A TEER value of at least 3 KOhm/well was determined to be acceptable.

Caco-2 cells = assay: Caco-2 cell monolayer permeability; type: in vitro ADME, human
Experimental: as §5

[4] = Stability in human liver microsomes; type: in vitro ADME
Experimental: as §3, §4

Stability in rat plasma = type: in vitro ADME; conditions: 37 °C, 1 μM
Experimental: as §1, §2

T1 sequence (Q12809 whole entry): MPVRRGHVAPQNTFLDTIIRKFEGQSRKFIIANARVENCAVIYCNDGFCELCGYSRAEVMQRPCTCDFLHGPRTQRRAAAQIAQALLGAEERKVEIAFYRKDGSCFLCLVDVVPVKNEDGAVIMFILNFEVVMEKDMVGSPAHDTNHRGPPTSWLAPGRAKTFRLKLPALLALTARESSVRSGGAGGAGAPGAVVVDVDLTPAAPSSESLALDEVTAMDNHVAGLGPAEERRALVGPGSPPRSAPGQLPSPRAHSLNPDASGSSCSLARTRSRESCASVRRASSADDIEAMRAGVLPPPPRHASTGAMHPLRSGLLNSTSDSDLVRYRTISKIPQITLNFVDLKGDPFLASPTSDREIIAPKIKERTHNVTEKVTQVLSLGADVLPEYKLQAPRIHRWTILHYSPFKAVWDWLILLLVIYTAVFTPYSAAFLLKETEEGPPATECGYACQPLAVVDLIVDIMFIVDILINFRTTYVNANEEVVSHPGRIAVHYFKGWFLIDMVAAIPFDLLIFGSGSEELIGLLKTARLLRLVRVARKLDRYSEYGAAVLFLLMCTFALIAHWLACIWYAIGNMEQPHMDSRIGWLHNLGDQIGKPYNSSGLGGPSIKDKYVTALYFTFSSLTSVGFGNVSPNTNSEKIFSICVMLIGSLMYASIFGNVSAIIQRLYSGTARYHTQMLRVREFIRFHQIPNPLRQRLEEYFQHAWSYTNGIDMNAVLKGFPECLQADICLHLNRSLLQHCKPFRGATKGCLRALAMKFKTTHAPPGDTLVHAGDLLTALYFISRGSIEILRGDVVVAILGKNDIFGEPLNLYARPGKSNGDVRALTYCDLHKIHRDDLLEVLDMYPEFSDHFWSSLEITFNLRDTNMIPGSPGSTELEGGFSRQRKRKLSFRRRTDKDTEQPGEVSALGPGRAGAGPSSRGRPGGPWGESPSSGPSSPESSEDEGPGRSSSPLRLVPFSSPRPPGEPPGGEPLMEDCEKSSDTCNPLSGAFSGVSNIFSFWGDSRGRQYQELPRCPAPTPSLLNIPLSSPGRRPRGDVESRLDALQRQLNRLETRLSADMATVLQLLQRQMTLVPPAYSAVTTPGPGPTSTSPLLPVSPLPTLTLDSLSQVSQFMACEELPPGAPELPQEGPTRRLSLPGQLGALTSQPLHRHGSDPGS

CCOC(=O)c1[nH]c2cc(F)ccc2c1/N=N/N1CCCC1 [BX-SI043, Ethyl (E)-6-fluoro-3-(pyrrolidin-1-yldiazenyl)-1H-indole-2-carboxylate]
IC50 (hERG K+-ion channel): > 50 µM | metabolized in human plasma after 1 h ([1]; 1 h): about 50% | metabolized in human plasma after 4 h ([1]; 4 h): 97% | microsomal CLint ([2]; pH 7.4, rat liver microsomes): 2140 µL/min/mg | Remaining after 30 min ([2]; rat liver microsomes): 0.00% | t1/2 ([2]; rat liver microsomes, listed as ВХSI043): 1.30 min | half-life ([2]; rat, liver microsomes, pH 7.4, rat liver microsomes): 1.4 min | efflux ratio at 2 h, 1 µM [3]: 0.37 | Papp A-B (Caco-2 cells; Caco-2, 1 µM, 2 h): 0.51 10^-6 sm/s | Papp B-A (Caco-2 cells; Caco-2, 1 µM, 2 h): 0.19 10^-6 sm/s | Mass balance (Caco-2 cells; Caco-2, first value: A-B / apical): 49% | Mass balance (Caco-2 cells; Caco-2, first value: A-B / apical, listed as ВХ-SI043): 49% | Mass balance (Caco-2 cells; Caco-2, second value: B-A / basolateral): 25.1% | Remaining after 30 min ([4]; NADPH): 0.00% | half-life ([4]; pH 7.4, NADPH): 2.73 min | microsomal CLint ([4]; pH 7.4, NADPH): 1020 µL/min/mg | remaining in rat plasma after 15 min (Stability in rat plasma): 1.7%
